PubChem BioAssay AID2060616 (Molecular Pharmacology Branch, DTP, NCI, 2025)

Test system: 377384-186-R-J1-PDC complex spheroid viability
Assay: Anticancer human tumor 377384-186-R-J1-PDC patient-derived pancreatic carcinoma cell line growth inhibition [CLK]
Details: for IC50: curve of first compound; for viability, T/C: stronger effect = lower value
Method in brief: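 Multi-cell-type spheroids combined patient-derived tumor cells with HUVEC endothelial cells and human mesenchymal stem cells. Paired agents were dosed in half-log steps down from about clinical Cmax, or from 10 microM where Cmax was unknown.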

[1] = second compound 0.0316 µM, first compound 0.0316 µM
[2] = second compound 0.0316 µM, first compound 0.1 µM
[3] = second compound 0.0316 µM, first compound 0.316 µM
[4] = second compound 0.0316 µM, first compound 1 µM
[5] = second compound 0.0316 µM, first compound 3.16 µM
[6] = second compound 0.0316 µM, first compound 10 µM
[7] = second compound 0.1 µM, first compound 0.0316 µM
[8] = second compound 0.1 µM, first compound 0.1 µM
[9] = second compound 0.1 µM, first compound 0.316 µM
[10] = second compound 0.1 µM, first compound 1 µM
[11] = second compound 0.1 µM, first compound 3.16 µM
[12] = second compound 0.1 µM, first compound 10 µM
[13] = second compound 0.316 µM, first compound 0.0316 µM
[14] = second compound 0.316 µM, first compound 0.1 µM
[15] = second compound 0.316 µM, first compound 0.316 µM
[16] = second compound 0.316 µM, first compound 1 µM
[17] = second compound 0.316 µM, first compound 3.16 µM
[18] = second compound 0.316 µM, first compound 10 µM
[19] = second compound 1 µM, first compound 0.0316 µM
[20] = second compound 1 µM, first compound 0.1 µM
[21] = second compound 1 µM, first compound 0.316 µM
[22] = second compound 1 µM, first compound 1 µM
[23] = second compound 1 µM, first compound 3.16 µM
[24] = second compound 1 µM, first compound 10 µM
[25] = second compound 3.16 µM, first compound 0.0316 µM
[26] = second compound 3.16 µM, first compound 0.1 µM
[27] = second compound 3.16 µM, first compound 0.316 µM
[28] = second compound 3.16 µM, first compound 1 µM
[29] = second compound 3.16 µM, first compound 3.16 µM
[30] = second compound 3.16 µM, first compound 10 µM
[31] = second compound 10 µM, first compound 0.0316 µM
[32] = second compound 10 µM, first compound 0.1 µM
[33] = second compound 10 µM, first compound 0.316 µM
[34] = second compound 10 µM, first compound 1 µM
[35] = second compound 10 µM, first compound 3.16 µM
[36] = second compound 10 µM, first compound 10 µM
[37] = second compound 0.0316 µM, first compound 0.00316 µM
[38] = second compound 0.0316 µM, first compound 0.01 µM
[39] = second compound 0.1 µM, first compound 0.00316 µM
[40] = second compound 0.1 µM, first compound 0.01 µM
[41] = second compound 0.316 µM, first compound 0.00316 µM
[42] = second compound 0.316 µM, first compound 0.01 µM
[43] = second compound 1 µM, first compound 0.00316 µM
[44] = second compound 1 µM, first compound 0.01 µM
[45] = second compound 3.16 µM, first compound 0.00316 µM
[46] = second compound 3.16 µM, first compound 0.01 µM
[47] = second compound 10 µM, first compound 0.00316 µM
[48] = second compound 10 µM, first compound 0.01 µM
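Also: spheroids exposed to agents for 7 days before reading.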
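For viability, T/C in this document: luminescence signal used as a stand-in for viable cells.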

## C#Cc1c(F)ccc2cc(O)cc(-c3ncc4c(N5CC6CCC(C5)N6)nc(OCC56CCCN5CC(F)C6)nc4c3F)c12 (stereo not drawn) + CN1CCN(c2cc(C(=O)Nc3cc4cc(-c5cnn(C)c5)ccc4cn3)ccn2)CC1
Second compound 0.0316 µM
  IC50: < 31.6 nM
Second compound 0.1 µM
  IC50: < 31.6 nM
Second compound 0.316 µM
  IC50: < 31.6 nM
Second compound 1 µM
  IC50: < 31.6 nM
Second compound 3.16 µM
  IC50: < 31.6 nM
Second compound 10 µM
  IC50: < 31.6 nM
[1]
  viability, T/C: 23.7%
[2]
  viability, T/C: 9.22%
[3]
  viability, T/C: 5.47%
[4]
  viability, T/C: 3.59%
[5]
  viability, T/C: 1.91%
[6]
  viability, T/C: 2.78%
[7]
  viability, T/C: 17.5%
[8]
  viability, T/C: 9.27%
[9]
  viability, T/C: 3.82%
[10]
  viability, T/C: 2.55%
[11]
  viability, T/C: 1.86%
[12]
  viability, T/C: 1.3%
[13]
  viability, T/C: 6.63%
[14]
  viability, T/C: 2.9%
[15]
  viability, T/C: 2.56%
[16]
  viability, T/C: 1.32%
[17]
  viability, T/C: 1.33%
[18]
  viability, T/C: 0.82%
[19]
  viability, T/C: 0.45%
[20]
  viability, T/C: 0.37%
[21]
  viability, T/C: 0.27%
[22]
  viability, T/C: 0.32%
[23]
  viability, T/C: 0.34%
[24]
  viability, T/C: 0.4%
[25]
  viability, T/C: 0.26%
[26]
  viability, T/C: 0.6%
[27]
  viability, T/C: 0.24%
[28]
  viability, T/C: 0.33%
[29]
  viability, T/C: 0.38%
[30]
  viability, T/C: 0.56%
[31]
  viability, T/C: 0.1%
[32]
  viability, T/C: 0.21%
[33]
  viability, T/C: 0.19%
[34]
  viability, T/C: 0.33%
[35]
  viability, T/C: 0.22%
[36]
  viability, T/C: 0.49%

## CCc1c2c(nc3ccc(O)cc13)-c1cc3c(c(=O)n1C2)COC(=O)[C@]3(O)CC + CN1CCN(c2cc(C(=O)Nc3cc4cc(-c5cnn(C)c5)ccc4cn3)ccn2)CC1
Second compound 0.0316 µM
  IC50: < 3.16 nM
Second compound 0.1 µM
  IC50: < 3.16 nM
Second compound 0.316 µM
  IC50: < 3.16 nM
Second compound 1 µM
  IC50: < 3.16 nM
Second compound 3.16 µM
  IC50: < 3.16 nM
Second compound 10 µM
  IC50: < 3.16 nM
[37]
  viability, T/C: 38.2%
[38]
  viability, T/C: 16.4%
[1]
  viability, T/C: 9%
[2]
  viability, T/C: 3.5%
[3]
  viability, T/C: 2%
[4]
  viability, T/C: 0.73%
[39]
  viability, T/C: 31.7%
[40]
  viability, T/C: 18.6%
[7]
  viability, T/C: 8.13%
[8]
  viability, T/C: 3.62%
[9]
  viability, T/C: 1.47%
[10]
  viability, T/C: 0.71%
[41]
  viability, T/C: 18.3%
[42]
  viability, T/C: 15%
[13]
  viability, T/C: 7.22%
[14]
  viability, T/C: 4.37%
[15]
  viability, T/C: 1.79%
[16]
  viability, T/C: 0.66%
[43]
  viability, T/C: 0.56%
[44]
  viability, T/C: 0.36%
[19]
  viability, T/C: 1.07%
[20]
  viability, T/C: 0.19%
[21]
  viability, T/C: 0.14%
[22]
  viability, T/C: 0.3%
[45]
  viability, T/C: 0.23%
[46]
  viability, T/C: 0.3%
[25]
  viability, T/C: 0.53%
[26]
  viability, T/C: 0.25%
[27]
  viability, T/C: 0.38%
[28]
  viability, T/C: 0.85%
[47]
  viability, T/C: 0.27%
[48]
  viability, T/C: 1.05%
[31]
  viability, T/C: 0.38%
[32]
  viability, T/C: 0.27%
[33]
  viability, T/C: 0.23%
[34]
  viability, T/C: 0.35%

## COc1c(OCCCN2CCOCC2)ccc2c3n(c(=NC(=O)c4cnc(N)nc4)nc12)CCN3 + CN1CCN(c2cc(C(=O)Nc3cc4cc(-c5cnn(C)c5)ccc4cn3)ccn2)CC1
Second compound 0.0316 µM
  IC50: 41.8 nM
Second compound 0.1 µM
  IC50: 38.9 nM
Second compound 0.316 µM
  IC50: < 3.16 nM
Second compound 1 µM
  IC50: < 3.16 nM
Second compound 3.16 µM
  IC50: < 3.16 nM
Second compound 10 µM
  IC50: < 3.16 nM
[37]
  viability, T/C: 103%
[38]
  viability, T/C: 72.8%
[1]
  viability, T/C: 55.2%
[2]
  viability, T/C: 37.8%
[3]
  viability, T/C: 24.9%
[4]
  viability, T/C: 15%
[39]
  viability, T/C: 89.9%
[40]
  viability, T/C: 77.2%
[7]
  viability, T/C: 48%
[8]
  viability, T/C: 37.6%
[9]
  viability, T/C: 25.3%
[10]
  viability, T/C: 14.5%
[41]
  viability, T/C: 31.7%
[42]
  viability, T/C: 22.1%
[13]
  viability, T/C: 18.7%
[14]
  viability, T/C: 16.6%
[15]
  viability, T/C: 14.2%
[16]
  viability, T/C: 11.9%
[43]
  viability, T/C: 2.68%
[44]
  viability, T/C: 2.64%
[19]
  viability, T/C: 1.8%
[20]
  viability, T/C: 1.85%
[21]
  viability, T/C: 2.19%
[22]
  viability, T/C: 2.43%
[45]
  viability, T/C: 0.37%
[46]
  viability, T/C: 0.47%
[25]
  viability, T/C: 0.92%
[26]
  viability, T/C: 0.45%
[27]
  viability, T/C: 0.44%
[28]
  viability, T/C: 1.06%
[47]
  viability, T/C: 0.5%
[48]
  viability, T/C: 0.28%
[31]
  viability, T/C: 0.28%
[32]
  viability, T/C: 0.32%
[33]
  viability, T/C: 0.33%
[34]
  viability, T/C: 0.34%

## C#Cc1c(F)ccc2cc(O)cc(-c3ncc4c(N5CC6CCC(C5)N6)nc(OCC56CCCN5CC(F)C6)nc4c3F)c12 (stereo not drawn) + CNC(=O)c1ccc(Nc2nc(OC3CCCC3)c3c(-c4ccc5nc(C)oc5c4)c[nH]c3n2)c(OC)c1
Second compound 0.0316 µM
  IC50: < 31.6 nM
Second compound 0.1 µM
  IC50: < 31.6 nM
Second compound 0.316 µM
  IC50: < 31.6 nM
Second compound 1 µM
  IC50: < 31.6 nM
Second compound 3.16 µM
  IC50: < 31.6 nM
Second compound 10 µM
  IC50: < 31.6 nM
[1]
  viability, T/C: 23.6%
[2]
  viability, T/C: 11.7%
[3]
  viability, T/C: 5.37%
[4]
  viability, T/C: 4.27%
[5]
  viability, T/C: 2.38%
[6]
  viability, T/C: 1.98%
[7]
  viability, T/C: 22%
[8]
  viability, T/C: 8.53%
[9]
  viability, T/C: 5.17%
[10]
  viability, T/C: 2.73%
[11]
  viability, T/C: 2.7%
[12]
  viability, T/C: 2.19%
[13]
  viability, T/C: 7.28%
[14]
  viability, T/C: 4.75%
[15]
  viability, T/C: 3.08%
[16]
  viability, T/C: 2.69%
[17]
  viability, T/C: 2.74%
[18]
  viability, T/C: 2.17%
[19]
  viability, T/C: 6.44%
[20]
  viability, T/C: 3.72%
[21]
  viability, T/C: 2.21%
[22]
  viability, T/C: 1.64%
[23]
  viability, T/C: 1.66%
[24]
  viability, T/C: 1.12%
[25]
  viability, T/C: 4.56%
[26]
  viability, T/C: 3.31%
[27]
  viability, T/C: 2.47%
[28]
  viability, T/C: 2.25%
[29]
  viability, T/C: 1.64%
[30]
  viability, T/C: 1.59%
[31]
  viability, T/C: 4.62%
[32]
  viability, T/C: 2.7%
[33]
  viability, T/C: 2.29%
[34]
  viability, T/C: 1.95%
[35]
  viability, T/C: 1.6%
[36]
  viability, T/C: 2.24%
